Legend:
interferon (α) [1] = assay: Cytokine induction in human cells: interferon secreted by PBMCs, ELISA; assay type: cell-based; settings: PBMC, incubated 18 to 24 hours, interferon determined by ELISA, read-out: Lowest Effective Concentration (μM) Interferon
Outline: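 Human donor PBMCs at 1.5-2×10^6 cells/mL final in RPMI with 10% FBS, exposed to serially diluted compound (≤1% DMSO) for 18–24 h at 37 °C, 5% CO2. Supernatant interferon (α) measured by ELISA; value is lowest concentration inducing interferon.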

[2] = tested on: tumor necrosis factor (α); assay: Cytokine induction in human cells: tumor necrosis factor (α) secreted by PBMCs, ELISA; assay type: cell-based; settings: PBMC, incubated 18 to 24 hours, TNF determined by ELISA, read-out: Lowest Effective Concentration (μM) Tumor Necrosis Factor
Outline: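 Human donor PBMCs at final 1.5-2×10^6 cells/mL in RPMI with 10% FBS incubated 18 to 24 h at 37° C. with serially diluted compound, DMSO at most 1% final. Supernatant TNF-α measured by ELISA; value is the lowest concentration inducing TNF.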

interferon (α) [3] = assay: Cytokine induction in human cells: interferon secreted by PBMCs, bioassay (A549 cells challenged with encephalomyocarditis virus); assay type: cell-based; settings: PBMC, incubated 18 to 24 hours, interferon determined using the bioassay method, read-out: Lowest Effective Concentration (μM) Interferon
Description: An in vitro human blood cell system was used to assess cytokine induction by compounds of the invention. Activity is based on the measurement of interferon and tumor necrosis factor (α) (IFN and TNF, respectively) secreted into culture media as described by Testerman et. al. In “Cytokine Induction by the Immunomodulators Imiquimod and S-27609”, Journal of Leukocyte Biology, 58, 365-372 (September, 1995).
Whole blood is collected by venipuncture into EDTA vacutainer tubes from healthy human donors. Peripheral blood mononuclear cells (PBMCs) are separated from whole blood by density gradient centrifugation using Histopaque®-1077 (Sigma Chemicals, St. Louis, Mo.). The PBMCs are suspended at 3-4×10^6 cells/mL in RPMI 1640 medium containing 10% fetal bovine serum, 2 mM L-glutamine and 1% penicillin/streptomycin solution (RPMI complete). The PBMC suspension is added to 48 well flat bottom sterile tissue culture plates (Costar, Cambridge, Mass. or Becton Dickinson Labware, Lincoln Park, N.J.) containing an equal volume of RPMI complete media containing test compound.
The compounds are solubilized in dimethyl sulfoxide (DMSO). The DMSO concentration should not exceed a final concentration of 1% for addition to the culture wells.
The solution of test compound is added at 60 μM to the first well containing RPMI complete and serial (three fold or ten fold) dilutions are made. The PBMC suspension is then added to the wells in an equal volume, bringing the test compound concentrations to the desired range. The final concentration of PBMC suspension is 1.5-2×10^6 cells/mL. The plates are covered with sterile plastic lids, mixed gently and then incubated for 18 to 24 hours at 37° C. in a 5% carbon dioxide atmosphere.
Following incubation the plates are centrifuged for 5-10 minutes at 1000 rpm (˜200×g) at 4° C. The cell culture supernatant is removed with a sterile polypropylene pipet and transferred to sterile polypropylene tubes. Samples are maintained at −30 to −70° C. until analysis. The samples are analyzed for interferon (α) by either ELISA or bioassay and for tumor necrosis factor (α) by ELISA.
Interferon is determined by bioassay using A549 human lung carcinoma cells challenged with encephalomyocarditis. The details of the bioassay method have been described by G. L. Brennan and L. H. Kronenberg in “Automated Bioassay of Interferons in Micro-test Plates”, Biotechniques, June/July, 78, 1983, incorporated herein by reference. Briefly stated the method is as follows: A549 cells are incubated with dilutions of samples or a standard interferon at 37° C. for 24 hours. The incubated cells are then infected with an inoculum of encephalomyocarditis virus. The infected cells are incubated for an additional 24 hours at 37° C. before evaluating for viral cytopathic effect. The viral cytopathic effect is quantified by staining with crystal violet followed by visual scoring of the plates. Results are expressed as alpha reference units/mL based on the value obtained for NIH Human Leukocyte IFN standard.
The table below lists the lowest concentration found to induce interferon and the lowest concentration found to induce tumor necrosis factor for each compound. […] Unless otherwise indicated, the interferon biosynthesis was determined by ELISA.

melting point | SMILES | minimal effective concentration (interferon (α) [1]) [µM] | minimal effective concentration [2] [µM] | minimal effective concentration (interferon (α) [3]) [µM]
257 °C (dec.) | Nc1nc2ccccc2c2c1ncn2CCCCNC(=O)c1ccc2ccccc2c1 [Example 43, N^2-[4-(4-Amino-1H-imidazo[4,5-c]quinolin-1-yl)butyl]-2-naphthamide] | 0.12 | > 30 | –
175 to 177 °C | COc1ccc(C(=O)NCCCCn2cnc3c(N)nc4ccccc4c32)c(OC)n1 [Example 44, N^3-[4-(4-Amino-1H-imidazo[4,5-c]quinolin-1-yl)butyl]-2,6-dimethoxynicotnamide] | 1.11 | > 30 | –
91 to 93 °C | Nc1nc2ccccc2c2c1ncn2CCCCNC(=O)c1cccc2cccnc12 [Example 45, N^8-[4-(4-Amino-1H-imidazo[4,5-c]quinolin-1-yl)butyl]-8-quinolinecarboxamide] | 3.33 | > 30 | –
172 to 173 °C | CC(C)Cc1ccc(C(C)C(=O)NCCCCn2cnc3c(N)nc4ccccc4c32)cc1 (centres unmarked) [Example 46, N^1-[4-(4-Amino-1 H-imidazo[4,5-c]quinolin-1-yl)butyl]-2-(4-isobutylphenyl)propanamide] | > 30 | 10 | –
199 to 200 °C | COCCc1nc2c(N)nc3ccccc3c2n1CCCCNC(=O)c1cc2ccccc2cn1 [Example 181, N-{4-[4-amino-2-(2-methoxyethyl)-1H-imidazo[4,5-c]quinolin-1-yl]butyl}isoquinoline-3-carboxamide] | 0.01 | 1.11 | –
114 to 116 °C | COCCc1nc2c(N)nc3ccccc3c2n1CCCCNC(=O)c1cnc2ccccc2c1 [Example 182, N-{4-[4-amino-2-(2-methoxyethyl)-1H-imidazo[4,5-c]quinolin-1-yl]butyl}quinoline-3-carboxamide] | 0.01 | 0.01 | –
85 to 87 °C | COCCc1nc2c(N)nc3ccccc3c2n1CCCCNC(=O)c1cnc2ccccc2n1 [Example 183, N-{4-[4-amino-2-(2-methoxyethyl)-1H-imidazo [4,5-c]quinolin-1-yl]butyl}quinoxaline-2-carboxamide] | 0.01 | 0.04 | –
149.5 to 151.3 °C | CCCCc1nc2c(N)nc3ccccc3c2n1CCCCCCCCNC(=O)c1ccccc1 [Example 186, N-[8-(4-amino-2-butyl-1H-imidazo[4,5-c]quinolin-1-yl)octyl]benzamide] | 0.04 | 0.12 | –
133.4 to 137.5 °C | COCCc1nc2c(N)nc3ccccc3c2n1CCCCCCCCNC(=O)c1ccccc1 [Example 187, N-{8-[4-amino-2-(2-methoxyethyl)-1H-imidazo[4,5-c]quinolin-1-yl]octyl}benzamide] | 0.01 | 0.01 | –
189.4 to 190 °C | CCCCc1nc2c(N)nc3ccccc3c2n1CCCNC(=O)c1ccccc1 [Example 189, N-[3-(4-amino-2-butyl-1H-imidazo[4,5-c]quinolin-1-yl)propyl]benzamide] | 0.04 | 0.12 | –
103 to 125 °C | COCCc1nc2c(N)nc3ccccc3c2n1CC(C)(C)CNC(=O)c1ccccc1 [Example 190, N-{3-[4-amino-2-(2-methoxyethyl)-1H-imidazo[4,5-c]quinolin-1-yl]-2,2-dimethylpropyl}benzamide] | 0.01 | 0.01 | –
198 to 198.5 °C | COCCc1nc2c(N)nc3ccccc3c2n1CCCNC(=O)c1cc2ccccc2cn1 [Example 192, N-{3-[4-amino-2-(2-methoxyethyl)-1H-imidazo[4,5-c]quinolin-1-yl]propyl}isoquinoline-3-carboxamide] | 0.12 | 0.37 | –
192 to 194 °C | Nc1nc2ccccc2c2c1nc(CCCOc1ccccc1)n2CCCNC(=O)c1ccccc1 [Example 194, N-{3-[4-amino-2-(3-phenoxypropyl)-1H-imidazo[4,5-c]quinolin-1-yl]propyl}benzamide] | > 30 | 10 | –
183 to 186 °C | COCCc1nc2c(N)nc3ccccc3c2n1CCCNC(=O)c1ccccc1 [Example 196, N-{3-[4-amino-2-(2-methoxyethyl)-1H-imidazo[4,5-c]quinolin-1-yl]propyl}benzamide] | 0.01 | 0.37 | –

More lines, now with the values behind:

SMILES | melting point | minimal effective concentration (interferon (α) [1]) [µM] | minimal effective concentration [2] [µM] | minimal effective concentration (interferon (α) [3]) [µM]
N#Cc1ccc(C(=O)NCCCCn2cnc3c(N)nc4ccccc4c32)cc1 [Example 32, N^1-[4-(4-Amino-1H-imidazo[4,5-c]quinolin-1-yl)butyl]-4-cyanobenzamide] | 222.8 to 225.3 °C | 3.33 | > 30 | –
N#Cc1cccc(C(=O)NCCCCn2cnc3c(N)nc4ccccc4c32)c1 [Example 33, N^1-[4-(4-Amino-1H-imidazo[4,5-c]quinolin-1-yl)butyl]-3-cyanobenzamide] | 200 to 201 °C (dec.) | 0.37 | > 30 | –
Nc1nc2ccccc2c2c1ncn2CCCCNC(=O)c1ccc(-c2ccccc2)cc1 [Example 34, N^1-[4-(4-Amino-1H-imidazo[4,5-c]quinolin-1-yl)butyl]-4-phenylbenzamide] | 215.4 °C (dec.) | > 30 | 3.33 | –
Nc1nc2ccccc2c2c1ncn2CCCCNC(=O)COc1ccccc1 [Example 35, N^1-[4-(4-Amino-1H-imidazo[4,5-c]quinolin-1-yl)butyl]-2-phenoxyacetamide] | 61.5 °C (dec.) | 1.11 | > 30 | –
CCCCC(CC)C(=O)NCCCCn1cnc2c(N)nc3ccccc3c21 (centres unmarked) [Example 36, N^1-[4-(4-Amino-1H-imidazo[4,5-c]quinolin-1-yl)butyl]-2-ethylhexanamide] | 163 to 164 °C | 1.11 | 10 | –
Nc1nc2ccccc2c2c1ncn2CCCCNC(=O)c1cccc(Oc2ccccc2)c1 [Example 39, N^1-[4-(4-Amino-1H-imidazo[4,5-c]quinolin-1-yl)butyl]-3-phenoxybenzamide] | 105 to 107 °C | 3.33 | > 30 | –
CC(Oc1ccccc1)C(=O)NCCCCn1cnc2c(N)nc3ccccc3c21 (centres unmarked) [Example 41, N^1-[4-(4-Amino-1H-imidazo[4,5-c]quinolin-1-yl)butyl]-2-phenoxypropanamide] | 85 to 87.5 °C | 1.11 | > 30 | –
Nc1nc2ccccc2c2c1ncn2CCCCNC(=O)c1c(F)c(F)c(F)c(F)c1F [Example 68] | – | – | 10 | 1.11
Nc1nc2ccccc2c2c1ncn2CCCCNC(=O)c1ccc(C(F)(F)F)cc1 [Example 75] | – | – | – | 1.11
CC(C)(C)c1ccc(C(=O)NCCCCn2cnc3c(N)nc4ccccc4c32)cc1 [Example 76] | – | – | – | 3.33
Nc1nc2ccccc2c2c1ncn2CCCCNC(=O)CCC1CCCC1 [Example 83] | – | – | – | 1.11
